≈ marks a conversion by molar mass, not a printed value. Read-outs that look alike come from different tables or passages of the source.
Experiments:
[1] = test system: methicillin-sensitive Staphylococcus aureus; assay: MIC by broth micro-dilution (CLSI), methicillin-sensitive S. aureus; format: cell-based; details: MSSA S. aureus ATCC29213
[2] = test system: carbapenem sensitive Pseudomonas aeruginosa; assay: MIC by broth micro-dilution (CLSI), carbapenem sensitive P. aeruginosa; format: cell-based
[3] = test system: extended spectrum β lactamase (ESBL) SHV18 producing Klebsiella pneumoniae; assay: MIC by broth micro-dilution (CLSI), ESBL SHV18 producing K. pneumoniae; format: cell-based; details: Klebsiella pneumoniae, ATCC700603, 22 h, ESBL +ve (SHV-18) K. pneumoniae ATCC700603; read-out: MIC
[4] = test system: carbapenemase producing K. pneumoniae; assay: MIC by broth micro-dilution (CLSI), carbapenemase producing K. pneumoniae; format: cell-based, Klebsiella pneumoniae
[5] = test system: carbapenem sensitive Escherichia coli; assay: MIC by broth micro-dilution (CLSI), carbapenem sensitive E. coli; format: cell-based
[6] = Staphylococcus aureus, ATCC 29213 / MSSA, read-out: MIC
[7] = Pseudomonas aeruginosa, ATCC27853, Meropenem susceptible P. aeruginosa ATCC27853, read-out: MIC
[8] = Klebsiella pneumoniae, ATCCBAA1705, KPC-2 K. pneumoniae ATCC BAA-1705, read-out: MIC
[9] = Escherichia coli, ATCC25922, ESBL −ve E. coli ATCC25922, read-out: MIC
[10] = Meropenem susceptible P. aeruginosa ATCC27853

| Structure (SMILES) | MIC [1, 6] | MIC [2, 7] | MIC [3] | MIC [4, 8] | MIC [5, 9] | MIC [2, 10] | MIC [1] | MIC ([4]; KPC-2 K. pneumoniae ATCC BAA-1705) | MIC ([5]; ESBL −ve E. coli ATCC25922) |
| --- | --- | --- | --- | --- | --- | --- | --- | --- | --- |
| C[C@@H](NC(=O)CO)[C@H]1C(=O)N2C(C(=O)O)=C(S[C@@H]3CN[C@H](C(=O)N(C)C)C3)[C@H](C)[C@H]12 [Example 60] | 32 µg/mL (≈ 72.6 µM) | > 128 µg/mL | 32 µg/mL (≈ 72.6 µM) | 64 µg/mL (≈ 145 µM) | 16 µg/mL (≈ 36.3 µM) | – | – | – | – |
| C[C@@H](NC(=O)C(F)F)[C@H]1C(=O)N2C(C(=O)O)=C(S[C@@H]3CN[C@H](CNS(C)(=O)=O)C3)[C@H](C)[C@H]12 [Example 85] | 1 µg/mL (≈ 2.01 µM) | 64 µg/mL (≈ 129 µM) | 2 µg/mL (≈ 4.03 µM) | 2 µg/mL (≈ 4.03 µM) | 0.5 µg/mL (≈ 1.01 µM) | – | – | – | – |
| C[C@H](N)C(=O)N[C@H](C)[C@H]1C(=O)N2C(C(=O)O)=C(S[C@@H]3CN[C@H](C(=O)N(C)C)C3)[C@H](C)[C@H]12 [Example 68] | 32 µg/mL (≈ 70.6 µM) | 32 to 64 µg/mL (≈ 70.6 to 141 µM) | 8 µg/mL (≈ 17.6 µM) | > 128 µg/mL | 4 µg/mL (≈ 8.82 µM) | – | – | – | – |
| CNCC(=O)N[C@H](C)[C@H]1C(=O)N2C(C(=O)O)=C(S[C@@H]3CN[C@H](C(=O)N4CC[C@@H](O)C4)C3)[C@H](C)[C@H]12 [Example 192] | 64 µg/mL (≈ 129 µM) | 4 µg/mL (≈ 8.07 µM) | 2 µg/mL (≈ 4.04 µM) | 2 µg/mL (≈ 4.04 µM) | 1 µg/mL (≈ 2.02 µM) | – | – | – | – |
| C[C@@H](NC(=O)[C@@H]1CCCN1)[C@H]1C(=O)N2C(C(=O)O)=C(S[C@@H]3CN[C@H](C(=O)N(C)C)C3)[C@H](C)[C@H]12 [Example 228] | 64 µg/mL (≈ 133 µM) | 64 µg/mL (≈ 133 µM) | 4 µg/mL (≈ 8.34 µM) | 8 µg/mL (≈ 16.7 µM) | 1 µg/mL (≈ 2.09 µM) | – | – | – | – |
| CNCC(=O)N[C@H](C)[C@H]1C(=O)N2C(C(=O)O)=C(S[C@@H]3CN[C@H](C(=O)N4CC[C@@H](F)C4)C3)[C@H](C)[C@H]12 [Example 215] | 8 µg/mL (≈ 16.1 µM) | > 128 µg/mL | 32 µg/mL (≈ 64.3 µM) | 8 µg/mL (≈ 16.1 µM) | 2 µg/mL (≈ 4.02 µM) | – | – | – | – |
| C[C@@H](NC(=O)C(F)F)[C@H]1C(=O)N2C(C(=O)O)=C(S[C@@H]3CN[C@H](CN4CCNCC4)C3)[C@H](C)[C@H]12 [Example 145] | 0.5 µg/mL (≈ 1.03 µM) | 32 µg/mL (≈ 65.6 µM) | 8 to 16 µg/mL (≈ 16.4 to 32.8 µM) | 8 µg/mL (≈ 16.4 µM) | 2 µg/mL (≈ 4.1 µM) | – | – | – | – |
| CNCC(=O)N[C@H](C)[C@H]1C(=O)N2C(C(=O)O)=C(S[C@@H]3CN[C@H](C(=O)N4C[C@H](N)[C@@H](F)C4)C3)[C@H](C)[C@H]12 [Example 217] | 16 µg/mL (≈ 31.2 µM) | 2 µg/mL (≈ 3.9 µM) | 1 µg/mL (≈ 1.95 µM) | 1 µg/mL (≈ 1.95 µM) | 0.5 µg/mL (≈ 0.975 µM) | – | – | – | – |

Other lines, results leading:

| MIC [1, 6] | MIC [2, 7] | MIC [3] | MIC [4, 8] | MIC [5, 9] | MIC [2, 10] | MIC [1] | MIC ([4]; KPC-2 K. pneumoniae ATCC BAA-1705) | MIC ([5]; ESBL −ve E. coli ATCC25922) | Structure (SMILES) |
| --- | --- | --- | --- | --- | --- | --- | --- | --- | --- |
| 1 µg/mL (≈ 1.62 µM) | – | – | 1 µg/mL (≈ 1.62 µM) | 0.25 µg/mL (≈ 0.406 µM) | 4 µg/mL (≈ 6.5 µM) | – | – | – | C[C@@H](NC(=O)Cn1cnnn1)[C@H]1C(=O)N2C(C(=O)O)=C(S[C@@H]3CN[C@H](C(=O)N4CCC5CN(C(=N)N)CCC54)C3)[C@H](C)[C@H]12 (single isomer, unassigned) [Example 559] |
| 2 µg/mL (≈ 3.63 µM) | 8 µg/mL (≈ 14.5 µM) | – | 2 µg/mL (≈ 3.63 µM) | 0.125 µg/mL (≈ 0.227 µM) | – | – | – | – | C[C@@H](NC(=O)Cn1cnnn1)[C@H]1C(=O)N2C(C(=O)O)=C(S[C@@H]3CN[C@H](C(=O)N4C[C@@H](F)[C@@H](N)C4)C3)[C@H](C)[C@H]12 [Example 498, (4R,5S,6R)-6-((R)-1-(2-(1H-tetrazol-1-yl)acetamido)ethyl)-3-((3S,5S)-5-((3S,4R)-3-amino-4-fluoropyrrolidine-1-carbonyl)pyrrolidin-3-ylthio)-4-methyl-7-oxo-1-azabicyclo[3.2.0]hept-2-ene-2-carboxylic acid] |
| 4 µg/mL | 1 µg/mL | – | 2 µg/mL | 0.25 µg/mL | – | – | – | – | C[C@@H](NC(=O)Cn1cnnn1)[C@H]1C(=O)N2C(C(=O)O)=C(S[C@@H]3CN[C@H](C(=O)N4CC[N+](C)(CC(N)=O)CC4)C3)[C@H](C)[C@H]12.[I-] [Example 363, 4-((2S,4S)-4-((4R,5S,6R)-6-((R)-1-(2-(1H-tetrazol-1-yl)acetamido)ethyl)-2-carboxy-4-methyl-7-oxo-1-azabicyclo[3.2.0]hept-2-en-3-ylthio)pyrrolidine-2-carbonyl)-1-(2-amino-2-oxoethyl)-1-methylpiperazin-1-ium iodide] |
| 4 µg/mL (≈ 7.3 µM) | 16 µg/mL (≈ 29.2 µM) | – | 4 µg/mL (≈ 7.3 µM) | 1 µg/mL (≈ 1.83 µM) | – | – | – | – | C[C@@H](NC(=O)Cn1cnnn1)[C@H]1C(=O)N2C(C(=O)O)=C(S[C@@H]3CN[C@H](C(=O)N4CCC[C@H]4CN)C3)[C@H](C)[C@H]12 [Example 464, (4R,5S,6R)-6-((R)-1-(2-(1-tetrazol-1-yl)acetamido)ethyl)-3-((3S,5S)-5-((S)-2-(aminomethyl)pyrrolidine-1-carbooyl)pyrrolidin-3-ylthio)-4-methyl-7-oxo-1-azabicyclo[3.2.0]hept-2-ene-2-carboxylic acid] |
| 4 µg/mL (≈ 8.12 µM) | 16 µg/mL (≈ 32.5 µM) | – | 2 µg/mL (≈ 4.06 µM) | 0.5 µg/mL (≈ 1.02 µM) | – | – | – | – | C[C@@H](NC(=O)Cn1cnnn1)[C@H]1C(=O)N2C(C(=O)O)=C(S[C@@H]3CN[C@H](CNC(=N)N)C3)[C@H](C)[C@H]12 [Example 589, (4R,5S,6R)-6-((R)-1-(2-(1H-tetrazol-1-yl)acetamido)ethyl)-3-((3S,5S)-5-(guanidinomethyl)pyrrolidin-3-ylthio)-4-methyl-7-oxo-1-azabicyclo[3.2.0]hept-2-ene-2-carboxylic acid] |
| 16 µg/mL (≈ 28.1 µM) | 128 µg/mL (≈ 225 µM) | – | 4 µg/mL (≈ 7.02 µM) | 1 µg/mL (≈ 1.76 µM) | – | – | – | – | C[C@@H](NS(=O)(=O)Cn1ncnn1)[C@H]1C(=O)N2C(C(=O)O)=C(S[C@@H]3CN[C@H](C(=O)N4CC[C@@H](N)C4)C3)[C@H](C)[C@H]12 [Example 382, (4R,5S,6S)-6-((R)-1-((2H-tetrazol-2-yl)methylsulfonamido)ethyl)-3-((3S,5S)-5-((R)-3-aminopyrroldine-1-carbonyl)pyrrolidin-3-ylthio)-4-methyl-7-oxo-1-azabicyclo[3.2.0]hept-2-ene-2-carboxylic acid] |
| 2 µg/mL (≈ 3.49 µM) | 1 µg/mL (≈ 1.74 µM) | – | 2 µg/mL (≈ 3.49 µM) | 0.25 µg/mL (≈ 0.436 µM) | – | – | – | – | C[C@@H](NC(=O)Cn1cnnn1)[C@H]1C(=O)N2C(C(=O)O)=C(S[C@@H]3CN[C@H](C(=O)N4CCC5(CC4)CNC5)C3)[C@H](C)[C@H]12 [Example 368, (4R,5S,6R)-6-((R)-1-(2-(1H-tetrazol-1-yl)acetamido)ethyl)-3-((3S,5S)-5-(2,7-diazaspiro[3.5]nonane-7-carbonyl)pyrrolidin-3-ylthio)-4-methyl-7-oxo-1-azabicyclo[3.2.0]hept-2-ene-2-carboxylic acid] |
| – | – | – | – | – | 2 µg/mL (≈ 3.09 µM) | 4 µg/mL (≈ 6.18 µM) | 2 µg/mL (≈ 3.09 µM) | 0.25 µg/mL (≈ 0.387 µM) | C[C@@H](NC(=O)Cn1cnnn1)[C@H]1C(=O)N2C(C(=O)O)=C(S[C@@H]3CN[C@H](C(=O)N4CCC5CN(C[C@@H](O)CN)CCC54)C3)[C@H](C)[C@H]12 (single isomer, unassigned) [Example 532] |
| 2 µg/mL (≈ 3.47 µM) | 2 µg/mL (≈ 3.47 µM) | – | 2 µg/mL (≈ 3.47 µM) | 0.25 µg/mL (≈ 0.434 µM) | – | – | – | – | C[C@@H](NC(=O)Cn1cnnn1)[C@H]1C(=O)N2C(C(=O)O)=C(S[C@@H]3CN[C@H](C(=O)N4CC[C@@H](C(C)(C)N)C4)C3)[C@H](C)[C@H]12 [Example 500, (4R,5S,6R)-6-((R)-1-(2-(1H-tetrazol-1-yl)acetamido)ethyl)-3-((3S,5S)-5-((R)-3-(2-aminopropan-2-yl)pyrrolidine-1-carbonyl)pyrrolidin-3-ylthio)-4-methyl-7-oxo-1-azabicyclo[3.2.0]hept-2-ene-2-carboxylic acid] |
